Experiment [1] relates to Plasmodium falciparum. Description: In vitro antimalarial activity against drug-resistant Plasmodium falciparum D6. The class given is functional, organism-based.
Experiment [2] concerns Plasmodium falciparum. Nature of the experiment: In vitro antimalarial activity against drug-resistant Plasmodium falciparum W-2. The class given is functional, organism-based.

Structures are written as SMILES. In brackets after ≈: the same amount, converted by molar mass.

One may read the IC50 as the concentration that gives 50% inhibition. Regarding `C=CC[C@H]1O[C@@H]2O[C@@]3(C)CC[C@H]4[C@H](C)CC[C@@H]([C@H]1C)[C@@]24OO3`, the IC50 came out at 1.07 ng/mL (≈ 3.47 nM) with Plasmodium falciparum [1] and 0.59 ng/mL (≈ 1.91 nM) with Plasmodium falciparum [2].
In the case of `CC[C@H]1O[C@@H]2O[C@@]3(C)CC[C@H]4[C@H](C)CC[C@@H]([C@H]1C)[C@@]24OO3`, the values for the IC50 in the experiment with Plasmodium falciparum [1] and in the experiment on Plasmodium falciparum [2] were 1.09 ng/mL (≈ 3.68 nM) and 0.29 ng/mL (≈ 0.978 nM), respectively.
With `CCC[C@H]1O[C@@H]2O[C@@]3(C)CC[C@H]4[C@H](C)CC[C@@H]([C@H]1C)[C@@]24OO3`, the IC50 with Plasmodium falciparum [1] is 0.41 ng/mL (≈ 1.32 nM); in the experiment on Plasmodium falciparum [2], 0.16 ng/mL (≈ 0.515 nM).
The corresponding values for `C[C@H]1[C@@H](CCO)O[C@@H]2OC3(C)CC[C@H]4[C@H](C)CC[C@@H]1[C@@]24OO3` (single isomer, unassigned) are 2.04 ng/mL (≈ 6.53 nM) and 0.59 ng/mL (≈ 1.89 nM).
Take `C[C@@H]1CC[C@H]2[C@@H](C)CO[C@@H]3OC4(C)CC[C@@H]1[C@]32OO4` (single isomer, unassigned) [DEOXOARTEMISININ]: the IC50 amounted to 1.11 ng/mL (≈ 4.14 nM) with Plasmodium falciparum [1] and 0.48 ng/mL (≈ 1.79 nM) in the experiment on Plasmodium falciparum [2].
As to `C[C@@H]1CC[C@H]2[C@@H](C)C(=O)O[C@@H]3O[C@@]4(C)CC[C@@H]1[C@]32OO4` [ARTEMISININ], the values for the IC50 in the experiment on Plasmodium falciparum [1] and in the experiment on Plasmodium falciparum [2] were 0.86 ng/mL (≈ 3.05 nM) and 0.32 ng/mL (≈ 1.13 nM), respectively.
As to `CCO[C@H]1O[C@@H]2O[C@@]3(C)CC[C@H]4[C@H](C)CC[C@@H]([C@H]1C)[C@@]24OO3` [ARTEMOTIL], the IC50 was 0.34 ng/mL (≈ 1.09 nM) in the experiment with Plasmodium falciparum [1] and 0.18 ng/mL (≈ 0.576 nM) in the experiment on Plasmodium falciparum [2].
